Laboratory results: patent publication US20240199676A1, “ANTIVIRAL COMPOUNDS AND METHODS OF MAKING AND USING THE SAME” (Gilead Sciences, Inc., priority 2022, published 2024)

Legend:
[1] = GI S9 stability (Ex. Z), cyno intestinal S9; assay type: in vitro ADME; details: cynomolgus monkey, pooled intestinal S9 fractions; cyno intestinal S9, 1.0 mg/mL protein, 2 μM substrate, pH 7.4; read-out: GIS9 Cyno T½ (per Ex. Z)
Protocol: Example Z: GI S9 stability data:
Stock solutions of test compounds in dimethyl sulfoxide (DMSO) having a final concentration of 10 mM were prepared and used in all experiments. Sekisui XenoTech (Kansas City, KS) provided pooled intestinal S9 fractions. All other chemicals were purchased from Sigma-Aldrich (St. Louis, MO) or VWR (West Chester, PA). Internal Standard/Quench (IS/Q) used to stop reactions was 100 nM labetalol in (by volume) methanol (10%) and acetonitrile (90%).
Stability in Intestinal S9 Fractions: Duplicate aliquots of test compound or positive control substrate were added to S9 stock diluted with phosphate buffered saline (137 mM NaCl, 2.7 mM KCl, 10 mM phosphate buffer), pH 7.4, to obtain a protein concentration of 1.0 mg/mL. The metabolic reactions were initiated by the addition of the substrates to the S9 reaction mixture to a final concentration of 2 μM. At 0, 10, 20, 30, 60 and 120 min, 25 μL aliquots of the reaction mixture were transferred to plates containing 225 μl of IS/Q solution. After quenching, the plates were centrifuged at 3000×g for 30 minutes. 150 μL aliquots of each supernatant were dried down then reconstituted with 300 μL water. Aliquots (10 μL) of the prepared samples were analyzed on a Thermo Q-Exactive mass spectrometer as described below.
Liquid Chromatography—Mass Spectrometry: Quantification of test compounds and control substrate was performed by analyte/internal standard peak area ratio (PAR) values measured on a Thermo Q-Exactive mass spectrometer coupled to a Dionex UltiMate 3000 HPLC with a Leap Technologies HTC PAL autosampler. The column used for analysis was a Waters Acquity BEH C18 (1.7 μm particle size, 2.1×50 mm). Mobile phase A consisted of 0.1% (v/v) formic acid in water. Mobile phase B consisted of 0.1% (v/v) formic acid in acetonitrile. Elution of analytes was achieved by a series of linear gradients varying the proportions of A and B. The mass spectrometer was calibrated on a weekly basis and mass tolerance of 5 ppm was used.
Metabolic stabilities in S9 fractions were determined by measuring the rates of disappearance of test compound and positive control substrate.
Data (% of substrate remaining) were plotted on a semi-log scale and fitted using an exponential decline model:
Where Ct—% of substrate remaining at time=t; C0—% of substrate remaining at time=0; t—time; T½—half-life The Half-life (T½) is determined by the following equation: […]
Assuming a first-order reaction, the slope (k) is extrapolated from the aforementioned plotted data.

[2] = test system: Respiratory syncytial virus recombinant with luciferase (RSV-Luc5) in NHBE cells; assay: NHBE RSV-Luc5 384-well Assay (EC50 RSVFLUC NHBE-384, Ex. U); assay type: cell-based; details: human respiratory syncytial virus, 72 h, read-out: EC50 RSV FLUC NHBE 384 (per Ex. U)
Excerpt: Example U. NHBE RSV-Luc5 384-well Assay (EC50 RSVFLUC NHBE-384)
Normal Human Bronchial Epithelial (NHBE) cells were purchased from Lonza (Walkersville, MD Cat #CC2540) and maintained in BEGM Bronchial Epithelial Cell Growth Medium BulletKit (Lonza CC-3170).
Cells were thawed, expanded, and were used for experiments at passage 2. Respiratory syncytial virus recombinant with luciferase (RSV-Luc5) (≥1×10^7 Infectious Units/ml (IU/ml) determined by TCID50) was purchased from Microbiologics (Saint Cloud, MN). Viral replication was determined in NHBE cells in the following manner.
Compounds are prepared in 100% DMSO in 384-well polypropylene plates (Greiner, Monroe, NC, Cat #784201) with 8 compounds per plate in grouped replicates of 4 at 10 serially diluted concentrations (1:3). The serially diluted compounds were transferred to low dead volume Echo plates (Labcyte, Sunnyvale, CA, Cat #LP-0200).
The test compounds were spotted to 384-well assay plates (Greiner, Monroe, NC, Cat#781091) at 200 nL per well. NHBE cells were harvested and suspended in BEGM Bronchial Epithelial Cell Growth Medium BulletKit and seeded to the pre-spotted assay plates at 5,000 cells per well in 30 μL. RSV-Luc5 virus was diluted in BEGM Bronchial Epithelial Cell Growth Medium BulletKit at 500,000 Infectious Units (IU) per mL and 10 μL per well was added to the assay plates containing cells and compounds, for an MOI of 1. The assay plates were incubated for 3 days at 37° C. and 5% CO2. At the end of incubation, One-Glo reagent (Promega, Madison, WI, Cat #E6120) was prepared. The assay plates and One-Glo reagent were equilibrated to room temperature for at least 15 minutes. 40 μL per well of One-Glo reagent was added and the plates were incubated at room temperature for 15 minutes before reading the luminescence signal on an EnVision multimode plate reader (Perkin Elmer, Waltham, MA). Remdesivir was used as positive control and DMSO was used as negative control. Values were normalized to the positive and negative controls (as 0% and 100% replication, respectively) and data was fitted using non-linear regression analysis by Gilead's dose response tool. The EC50 value for each compound was defined as the concentration reducing the viral replication by 50%.

**Q.** Which half-life at 2 μM [1] does the source give for N#C[C@]1(COC(=O)CC2CCC2)O[C@@H](c2ccc3c(N)ncnn23)[C@H](O)[C@@H]1O [Compound 16, ((2R,3S,4R,5S)-5-(4-aminopyrrolo[2,1-f][1,2,4]triazin-7-yl)-2-cyano-3,4-dihydroxytetrahydrofuran-2-yl)methyl 2-cyclobutylacetate] here?
**A.** The half-life at 2 μM was 3 min.

**Q.** And the EC50 [2]?
**A.** Its EC50 is 9.53 µM.

**Q.** Which results are given for N#C[C@]1(COC(=O)C2CCCC2)O[C@@H](c2ccc3c(N)ncnn23)[C@H](O)[C@@H]1O [Compound 18, ((2R,3S,4R,5S)-5-(4-aminopyrrolo[2,1-f][1,2,4]triazin-7-yl)-2-cyano-3,4-dihydroxytetrahydrofuran-2-yl)methyl cyclopentanecarboxylate]?
**A.** half-life at 2 μM [1]: 3 min; EC50 [2]: 8.99 µM
